Columns and labels:
[1] = tested on: adjuvant arthritis (AA) in female Lewis rats; assay: Treatment of adjuvant arthritis in rats; type: in vivo, rat; details: oral administration once a day for 12 days; experiments repeated four times
Protocol: Treatment of adjuvant arthritis in rats: Adjuvant arthritis (AA) was induced in female Lewis rats by the intracutaneous injection (base of the tail) of 0.1 mL of a 10 mg/mL bacterial suspension made from ground, heat-killed Mycobacterium tuberculosis H37Ra suspended in incomplete Freund's adjuvant. Rats were given a test compound orally once a day for 12 days, starting the day following the induction. The development of polyarthritis was monitored daily by macroscopic inspection and assignment of an arthritis index to each animal, during the critical period (days 10 to 25 post-immunization).
The intensity of polyarthritis was scored according to the following scheme: (a) Grade each paw from 0 to 3 based on erythema, swelling, and deformity of the joints: 0 for no erythema or swelling; 0.5 if swelling is detectable in at least one joint; 1 for mild swelling and erythema; 2 for swelling and erythema of both tarsus and carpus; and 3 for ankylosis and bony deformity. Maximum score for all 4 paws was thus 12. […]
Experiments with the AA model were repeated four times. […] The arthritis score used in this model was a reflection of the inflammatory state of the structures monitored and the results therefore show the ability of the test compound to provide relief for this aspect of the pathology.

[2] = tested on: DNBS-induced distal colitis in Wistar derived rats; assay: Dinitrobenzene sulfonic acid-induced inflammatory bowel syndrome model rats; type: in vivo, rat; details: oral, 24 and 2 hours before DNBS instillation and then daily for 5 days
Protocol: Treatment of Crohn's disease in dinitrobenzene sulfonic acid-induced inflammatory bowel syndrome model rats: Wistar derived male or female rats weighing 200±20 g and fasted for 24 hours were used. Distal colitis was induced by intra-colonic instillation of 2,4-dinitrobenzene sulfonic acid (DNBS, 25 mg in 0.5 mL ethanol 30%) after which air (2 mL) was gently injected through the cannula to ensure that the solution remained in the colon. A test compound and/or vehicle was administered orally 24 and 2 hours before DNBS instillation and then daily for 5 days. One control group was similarly treated with vehicle alone while the other is treated with vehicle plus DNBS. The animals were sacrificed 24 hours after the final dose of test compound administration and each colon was removed and weighed. Colon-to-body weight ratio was then calculated for each animal according to the formula: Colon (g)/BW×100. The “Net” increase in ratio of Vehicle-control+DNBS group relative to Vehicle-control group was used as a base for comparison with test substance treated groups and expressed as “% Deduction.” Pyrimidine compounds of this invention (e.g., Compound 12) reproducibly had about 30% deduction. A 30% or more reduction in colon-to-body weight ratio, relative to the vehicle treated control group, was considered significant.
These experiments were repeated three times and the effects were reproducible.

[3] = tested on: colitis in T cell-reconstituted C.B-17 SCID mice; assay: CD4+ CD45Rb high T cell-reconstituted SCID colitis model mice; type: in vivo, mouse
Protocol: Treatment of Crohn's disease in CD4^+ CD45Rb^high T cell-reconstituted SCID colitis model mice: Spleen cells were prepared from normal female BALB/c mice. For cell purification, the following anti-mouse antibodies were used to label non-CD4^+ T cells: B220 (RA3-6B2), CD11b (M1/70), and CD8α (53-6.72). All antibodies were obtained from BioSource (Camarillo, Calif.). M450 anti-rat IgG-coated magnetic beads (Dynal, Oslo, Norway) were used to bind the antibodies and negative selection was accomplished using an MPC-1 magnetic concentrator. The enriched CD4^+ cells were then labeled for cell sorting with FITC-conjugated CD45RB (16A, Pharmingen, San Diego, Calif.) and PE-conjugated CD4 (CT-CD4, Caltag, Burlingame, Calif.). CD4^+ CD45RB^high cells were operationally defined as the upper 40% of CD45Rb-staining CD4^+ cells and sorted under sterile conditions by flow cytometry. Harvested cells were resuspended at 4×10^6/mL in PBS and injected 100 μL intraperitoneally into female C.B-17 SCID mice. Pyrimidine compounds of this invention (e.g., Compound 12) and/or vehicle was orally administered once a day, 5 days per week, starting the day following the transfer. The transplanted SCID mice were weighed weekly and their clinical condition was monitored.
Colon tissue samples were fixed in 10% buffered formalin and embedded in paraffin. Sections (4 μm) collected from ascending, transverse, and descending colon were cut and stained with hematoxylin and eosin. The severity of colitis was determined based on histological examination of the distal colon sections, whereby the extent of colonic inflammation was graded on a scale of 0-3 in each of four criteria: crypt elongation, cell infiltration, depletion of goblet cells, and the number of crypt abscesses.
LP lymphocytes were isolated from freshly obtained colonic specimens. After removal of payer's patches, the colon was washed in Ca/Mg-free HBSS, cut into 0.5 cm pieces and incubated twice in HBSS containing EDTA (0.75 mM), DTT (1 mM), and antibiotics (amphotericin 2.5 μg/mL, gentamicin 50 μg/mL from Sigma) at 37° C. for 15 min. Next, the tissue was digested further in RPMI containing 0.5 mg/mL collagenase D, 0.01 mg/mL DNase I (Boehringer Manheim), and antibiotics at 37° C. […]
To measure cytokine production, 48-well plates were coated with 10 μg/mL murine anti-CD3ε antibody (145-2C11) in carbonate buffer (PH 9.6) overnight at 4° C. […] Murine IFNγ was measured using an ELISA kit from Endogen (Cambridge, Mass.), according to the manufacturer's instructions.
The calculated colon-to-body weight ratio was consistent with the histological score, showing attenuation by treatment with the test compound.

IL-23 = assay: Inhibition of IL-23 in stimulated human PBMC (p19 capture ELISA); type: cell-based
From the text: The level of inhibition of IL-23 inhibition by a compound of the invention can be measured by a similar assay in which human peripheral blood mononuclear cells (PBMC) or human monocytic cell line (THP-1) are stimulated with a combination of human interferon-γ (IFNγ) and lipopolysaccharide (LPS) or a combination of IFNγ and Staphylococcus aureus Cowan I (SAC) in the presence of a test compound. The level of inhibition of IL-23 production can be measured by determining the amount of p19 by using a sandwich ELISA assay with antibodies the recognize p19 subunit of IL-23. IC50 of the test compound can then be determined. One such assay is disclosed herein in Example 30.
Therefore, inhibition of IL-23 in addition to IL-12 is expected. In order to confirm the hypothesis, an assay was established to specifically detect IL-23 using polyclonal antibodies recognizing p19 (R&D Systems, MN), an IL-23 specific subunit. A 96-well plate was coated with the antibodies at 1 μg/ml, and after washing incubated with the supernatants of human peripheral blood mononuclear cells (PBMC). The culture was stimulated with 1 μg/ml of liposaccharide (LPS) (FIG. 2) or 0.025% of S. aureus Cowan I (SAC) (FIG. 1) in the presence of test compound after IFN-γ priming. The captured IL-23 was then detected by a biotinylated goat anti-human p40 antibody that binds to p40 subunit of human IL-12 and IL-23 as a monomer or in the context of the respective heterodimer (Part 840099 of product DY1240 from R&D Systems). The plate was developed by incubation with streptavidin-HRP and then substrate solution (R&D Systems Cat # DY999). Recombinant IL-23 (R&D Systems) was added as standard in the assay. The estimated detection range is from 0.1 to 10 ng/ml, and 1 ng/ml recombinant IL-12 heterodimer (Cell Sciences, MA) and p40 monomer (R&D Systems) were under detection limit. To compare with the inhibition of IL-23, the supernatant was also analyzed for IL-12 heterodimer and total p40 proteins using IL-12 specific ELISA kit (Cell Sciences) and p40 ELISA kit (R&D Systems) respectively.

Compound: Cc1cccc(C=NNc2cc(N3CCOCC3)nc(OCCc3ccccn3)n2)c1 [Compound 12, N-(3-methyl-benzylidene)-N′-[6-morpholin-4-yl-2-(2-pyridin-2-yl-ethoxy)-pyrimidin-4-yl]-hydrazine]
- arthritic score [1]: reproducibly reduced the arthritic score
- development of polyarthritis [1]: delayed the development of polyarthritis in a dose-dependent manner
- % Deduction (net increase in colon-to-body weight ratio) [2]: about 30%
- IFNγ production by LP cells ([3]; LP cells ex vivo in response to anti-CD3 antibody and anti-CD28 antibody, 48 h): greatly diminished the production
- colon-to-body weight ratio ([3]; oral administration): attenuation
- colonic inflammation (histological analysis) ([3]; oral administration once a day, 5 days per week, compared to vehicle control): reduced colonic inflammation
- suppressive effect on colonic inflammation at 10 mg/kg ([3]; oral, dose of 10 mg/kg): substantial reduction
- inhibition of IL-23 (IL-23; IFN-γ/SAC and IFN-γ/LPS-stimulated human PBMC): inhibited by compound 12 in a dose-dependent manner
- inhibitory activity against IL-23 compared with that against IL-12 (IL-23; stimulated human PBMC): slightly lower than that against IL-12
- inhibitory activity against IL-23 compared with that against p40 (IL-23; stimulated human PBMC): comparable to that against p40

Source: patent US7851466B2, “Pyrimidine compounds and uses thereof” (Synta Pharmaceuticals Corp., priority 2004, dated 2010)
